Laboratory results reported in PubChem BioAssay AID1963423 (Molecular Pharmacology Branch, DTP, NCI, 2024).

Test system: 439559-082-T-J2-PDC complex spheroid growth
Assay: Anticancer human tumor 439559-082-T-J2-PDC patient-derived colon adenocarcinoma cell line growth inhibition [Asc]
Conditions: for IC50: curve of first compound; for viability, T/C: stronger effect = lower value
Summary of the method: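 Spheroid model: tumor line + HUVEC + hMSC. Single agents and combinations; top conc. at/near clinical Cmax (10 microM if undetermined), half-log dilutions. DMSO stocks at 800-fold test concentration.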

[1] = second compound 0.1 µM, first compound 0.0316 µM
[2] = second compound 0.1 µM, first compound 0.1 µM
[3] = second compound 0.1 µM, first compound 0.316 µM
[4] = second compound 0.1 µM, first compound 1 µM
[5] = second compound 0.316 µM, first compound 0.0316 µM
[6] = second compound 0.316 µM, first compound 0.1 µM
[7] = second compound 0.316 µM, first compound 0.316 µM
[8] = second compound 0.316 µM, first compound 1 µM
[9] = second compound 1 µM, first compound 0.0316 µM
[10] = second compound 1 µM, first compound 0.1 µM
[11] = second compound 1 µM, first compound 0.316 µM
[12] = second compound 1 µM, first compound 1 µM
[13] = second compound 3.16 µM, first compound 0.0316 µM
[14] = second compound 3.16 µM, first compound 0.1 µM
[15] = second compound 3.16 µM, first compound 0.316 µM
[16] = second compound 3.16 µM, first compound 1 µM
[17] = second compound 10 µM, first compound 0.0316 µM
[18] = second compound 10 µM, first compound 0.1 µM
[19] = second compound 10 µM, first compound 0.316 µM
[20] = second compound 10 µM, first compound 1 µM
[21] = second compound 0.1 µM, first compound 0.00316 µM
[22] = second compound 0.1 µM, first compound 0.01 µM
[23] = second compound 0.316 µM, first compound 0.00316 µM
[24] = second compound 0.316 µM, first compound 0.01 µM
[25] = second compound 1 µM, first compound 0.00316 µM
[26] = second compound 1 µM, first compound 0.01 µM
[27] = second compound 3.16 µM, first compound 0.00316 µM
[28] = second compound 3.16 µM, first compound 0.01 µM
[29] = second compound 10 µM, first compound 0.00316 µM
[30] = second compound 10 µM, first compound 0.01 µM
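Note: spheroids exposed to agents for 7 days starting day 3 after seeding.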
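Throughout, for viability, T/C: percent of DMSO vehicle control viability with 100% = vehicle.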

Work on `C=CC(=O)N1CCN(c2nc(=O)n(-c3c(C)ccnc3C(C)C)c3nc(-c4c(O)cccc4F)c(F)cc23)C(C)C1` (stereo not given) + Cc1c(S(C)(=O)=O)c(-c2cc(F)cc(N3CCN(c4ccc(NS(=O)(=O)c5ccc(NC(CCN6CCC(C(=O)OCCCP(=O)(O)O)CC6)CSc6ccccc6)c(S(=O)(=O)C(F)(F)F)c5)cc4)CC3)c2)c(-c2ccc(Cl)cc2)n1C(C)C yielded an IC50 (second compound 0.1 µM) of over 10000 nM, an IC50 (second compound 0.316 µM) of over 10000 nM and an IC50 (second compound 1 µM) of over 10000 nM. It also gave an IC50 (second compound 3.16 µM) of over 10000 nM, an IC50 (second compound 10 µM) of over 10000 nM and a viability, T/C [1] of 97.6%. It also gave a viability, T/C [2] of 112%, a viability, T/C [3] of 99.2% and a viability, T/C [4] of 97.4%. The viability, T/C (second compound 0.1 µM, first compound 3.16 µM) was 109%, the viability, T/C (second compound 0.1 µM, first compound 10 µM) was 99.8% and the viability, T/C [5] was 93.5%. The viability, T/C [6] was 107%, the viability, T/C [7] was 108% and the viability, T/C [8] was 98.2%. For the same compound, the viability, T/C (second compound 0.316 µM, first compound 3.16 µM) was 96.6%, the viability, T/C (second compound 0.316 µM, first compound 10 µM) was 88.3% and the viability, T/C [9] was 99.1%. It also gave a viability, T/C [10] of 102%, a viability, T/C [11] of 105% and a viability, T/C [12] of 88.9%. It also gave a viability, T/C (second compound 1 µM, first compound 3.16 µM) of 89.8%, a viability, T/C (second compound 1 µM, first compound 10 µM) of 91.6% and a viability, T/C [13] of 99.1%. The viability, T/C [14] was 101%, the viability, T/C [15] was 103% and the viability, T/C [16] was 89.1%. It also gave a viability, T/C (second compound 3.16 µM, first compound 3.16 µM) of 88.1%, a viability, T/C (second compound 3.16 µM, first compound 10 µM) of 94.6% and a viability, T/C [17] of 78%. For the same compound, the viability, T/C [18] was 80%, the viability, T/C [19] was 80.5% and the viability, T/C [20] was 73.8%. The viability, T/C (second compound 10 µM, first compound 3.16 µM) was 87.6% and the viability, T/C (second compound 10 µM, first compound 10 µM) was 81.3%.

`COc1c(OCCCN2CCOCC2)ccc2c3n(c(=NC(=O)c4cnc(N)nc4)nc12)CCN3` + Cc1c(S(C)(=O)=O)c(-c2cc(F)cc(N3CCN(c4ccc(NS(=O)(=O)c5ccc(NC(CCN6CCC(C(=O)OCCCP(=O)(O)O)CC6)CSc6ccccc6)c(S(=O)(=O)C(F)(F)F)c5)cc4)CC3)c2)c(-c2ccc(Cl)cc2)n1C(C)C gave an IC50 (second compound 0.1 µM) of over 1000 nM, an IC50 (second compound 0.316 µM) of over 1000 nM and an IC50 (second compound 1 µM) of over 1000 nM. The IC50 (second compound 3.16 µM) was 312 nM, the IC50 (second compound 10 µM) was 101 nM and the viability, T/C [21] was 97.8%. The viability, T/C [22] was 98.6%, the viability, T/C [1] was 85.8% and the viability, T/C [2] was 63.8%. The viability, T/C [3] was 67.1%, the viability, T/C [4] was 55% and the viability, T/C [23] was 95.9%. For the same compound, the viability, T/C [24] was 97.9%, the viability, T/C [5] was 90.8% and the viability, T/C [6] was 63.4%. For the same compound, the viability, T/C [7] was 62%, the viability, T/C [8] was 54.1% and the viability, T/C [25] was 90.2%. It also gave a viability, T/C [26] of 89.7%, a viability, T/C [9] of 82.6% and a viability, T/C [10] of 64.6%. It also gave a viability, T/C [11] of 59%, a viability, T/C [12] of 49.7% and a viability, T/C [27] of 85.6%. It also gave a viability, T/C [28] of 84.8%, a viability, T/C [13] of 79.9% and a viability, T/C [14] of 59.5%. The viability, T/C [15] was 50.8%, the viability, T/C [16] was 48% and the viability, T/C [29] was 69%. It also gave a viability, T/C [30] of 84.7%, a viability, T/C [17] of 72% and a viability, T/C [18] of 50.4%. The viability, T/C [19] was 36.9% and the viability, T/C [20] was 37.2%.

`NC(=O)C(=Cn1cnc(-c2cc(C(F)(F)F)cc(C(F)(F)F)c2)n1)c1cncnc1` + Cc1c(S(C)(=O)=O)c(-c2cc(F)cc(N3CCN(c4ccc(NS(=O)(=O)c5ccc(NC(CCN6CCC(C(=O)OCCCP(=O)(O)O)CC6)CSc6ccccc6)c(S(=O)(=O)C(F)(F)F)c5)cc4)CC3)c2)c(-c2ccc(Cl)cc2)n1C(C)C showed an IC50 (second compound 0.1 µM) of over 300 nM, an IC50 (second compound 0.316 µM) of over 300 nM and an IC50 (second compound 1 µM) of over 300 nM. For the same compound, the IC50 (second compound 3.16 µM) was over 300 nM, the IC50 (second compound 10 µM) was over 300 nM and the viability, T/C (second compound 0.1 µM, first compound 0.000949 µM) was 92%. The viability, T/C (second compound 0.1 µM, first compound 0.003 µM) was 115%, the viability, T/C (second compound 0.1 µM, first compound 0.00949 µM) was 92.9% and the viability, T/C (second compound 0.1 µM, first compound 0.03 µM) was 87%. The viability, T/C (second compound 0.1 µM, first compound 0.0949 µM) was 82.7%, the viability, T/C (second compound 0.1 µM, first compound 0.3 µM) was 82.5% and the viability, T/C (second compound 0.316 µM, first compound 0.000949 µM) was 100%. The viability, T/C (second compound 0.316 µM, first compound 0.003 µM) was 101%, the viability, T/C (second compound 0.316 µM, first compound 0.00949 µM) was 94.9% and the viability, T/C (second compound 0.316 µM, first compound 0.03 µM) was 82.8%. The viability, T/C (second compound 0.316 µM, first compound 0.0949 µM) was 84.2%, the viability, T/C (second compound 0.316 µM, first compound 0.3 µM) was 75.5% and the viability, T/C (second compound 1 µM, first compound 0.000949 µM) was 92.8%. It also gave a viability, T/C (second compound 1 µM, first compound 0.003 µM) of 98.2%, a viability, T/C (second compound 1 µM, first compound 0.00949 µM) of 91.1% and a viability, T/C (second compound 1 µM, first compound 0.03 µM) of 78%. It also gave a viability, T/C (second compound 1 µM, first compound 0.0949 µM) of 75.7%, a viability, T/C (second compound 1 µM, first compound 0.3 µM) of 67.4% and a viability, T/C (second compound 3.16 µM, first compound 0.000949 µM) of 87%. It also gave a viability, T/C (second compound 3.16 µM, first compound 0.003 µM) of 93.8%, a viability, T/C (second compound 3.16 µM, first compound 0.00949 µM) of 94.7% and a viability, T/C (second compound 3.16 µM, first compound 0.03 µM) of 75.3%. It also gave a viability, T/C (second compound 3.16 µM, first compound 0.0949 µM) of 69.4%, a viability, T/C (second compound 3.16 µM, first compound 0.3 µM) of 64.5% and a viability, T/C (second compound 10 µM, first compound 0.000949 µM) of 76.3%. It also gave a viability, T/C (second compound 10 µM, first compound 0.003 µM) of 73.6%, a viability, T/C (second compound 10 µM, first compound 0.00949 µM) of 75% and a viability, T/C (second compound 10 µM, first compound 0.03 µM) of 63.8%. It also gave a viability, T/C (second compound 10 µM, first compound 0.0949 µM) of 54.8% and a viability, T/C (second compound 10 µM, first compound 0.3 µM) of 56.6%.

Compound `NC1CCC(NC2CC2c2ccccc2)CC1` (stereo not given) + Cc1c(S(C)(=O)=O)c(-c2cc(F)cc(N3CCN(c4ccc(NS(=O)(=O)c5ccc(NC(CCN6CCC(C(=O)OCCCP(=O)(O)O)CC6)CSc6ccccc6)c(S(=O)(=O)C(F)(F)F)c5)cc4)CC3)c2)c(-c2ccc(Cl)cc2)n1C(C)C has an IC50 (second compound 0.1 µM) of over 100 nM, an IC50 (second compound 0.316 µM) of over 100 nM and an IC50 (second compound 1 µM) of over 100 nM. The IC50 (second compound 3.16 µM) was over 100 nM, the IC50 (second compound 10 µM) was over 100 nM and the viability, T/C (second compound 0.1 µM, first compound 0.000316 µM) was 101%. For the same compound, the viability, T/C (second compound 0.1 µM, first compound 0.001 µM) was 115%, the viability, T/C [21] was 100% and the viability, T/C [22] was 93.1%. For the same compound, the viability, T/C [1] was 113%, the viability, T/C [2] was 102% and the viability, T/C (second compound 0.316 µM, first compound 0.000316 µM) was 99.4%. The viability, T/C (second compound 0.316 µM, first compound 0.001 µM) was 114%, the viability, T/C [23] was 104% and the viability, T/C [24] was 103%. The viability, T/C [5] was 105%, the viability, T/C [6] was 113% and the viability, T/C (second compound 1 µM, first compound 0.000316 µM) was 96.6%. The viability, T/C (second compound 1 µM, first compound 0.001 µM) was 107%, the viability, T/C [25] was 117% and the viability, T/C [26] was 89.7%. The viability, T/C [9] was 97.8%, the viability, T/C [10] was 104% and the viability, T/C (second compound 3.16 µM, first compound 0.000316 µM) was 95.2%. For the same compound, the viability, T/C (second compound 3.16 µM, first compound 0.001 µM) was 108%, the viability, T/C [27] was 109% and the viability, T/C [28] was 90.8%. For the same compound, the viability, T/C [13] was 89.9%, the viability, T/C [14] was 104% and the viability, T/C (second compound 10 µM, first compound 0.000316 µM) was 88.3%. It also gave a viability, T/C (second compound 10 µM, first compound 0.001 µM) of 96.4%, a viability, T/C [29] of 87.1% and a viability, T/C [30] of 88.2%. For the same compound, the viability, T/C [17] was 85.1% and the viability, T/C [18] was 86%.
